Results reported in article PMC8233136, “Monomeric bile acids modulate the ATPase activity of detergent-solubilized ABCB4/MDR3” (Journal of Lipid Research, 2021).
Values joined by “and” are separate entries in the source; they are usually repeats but may differ in a detail not shown here. Equal values may be shown once.

What was measured:
[1] = Critical micelle concentration by Hoechst 33342 fluorescence in ATPase reaction buffer; assay type: physicochemical; settings: 50 mM Tris-HCl pH 7.5, 100 mM NaCl, 37°C; no FC-16, MgCl2 or ATP
Method: CMC values were determined as described ([61]). […] 96-well plates suitable for fluorescence spectroscopy (Greiner Bio-One, FIA plate, black, flat bottom, medium binding) were used. […] CMCs of the bile acids were determined in ATPase reaction buffer (50 mM Tris-HCl, pH 7.5 (at 37°C), 100 mM NaCl) containing no FC-16, MgCl2, or ATP at 37°C using a Tecan M200 plate reader (Atlantic lab equipment). Bile acids were dissolved either in ddH2O or in 100% DMSO (as stated in “Lipid, cholesterol and bile acid preparation”) at a concentration of 100 mM. […] In case of hydrophobic bile acids, which were dissolved in DMSO, DMSO concentration was adapted to 1% in all wells. […] After background correction, fluorescence data were analyzed using Prism (version 8, GraphPad) with Equation 4:(4) F=Fmax∗(c[BA]−cmc)/(K0.5−cmc)+(c[BA]−cmc)
The measured fluorescence at each bile acid concentration (c[BA]) is represented by F, while Fmax is the maximal fluorescence, K0.5 is the midpoint of the function, and cmc is the critical micelle concentration of the bile acid.

human ABCB4 [2] = target: T1, human ABCB4 (Homo sapiens, UniProt P21439); test: ATP hydrolysis (malachite green) of detergent-solubilized, purified ABCB4: modulation of basal ATPase activity; assay type: biochemical; settings: for Slope: Hill coefficient of allosteric sigmoidal fit of ATPase stimulation; for EC50: stimulation of basal ATPase activity, allosteric sigmoidal fit; for EC50 / Emax / Concentration at which maximal stimulation (plateau) of ATPase activity is reached / Max. Stimulation (%): 0-1,000 μM; for Emax / Max. Stimulation (%): basal ABCB4 ATPase activity set to 0%; for Concentration at which maximal stimulation (plateau) of ATPase activity is reached: basal ATPase activity
T1 construct: made in house; host or cells: Pichia pastoris (chromosomally integrated)
T1 sequence (P21439 1-1279 isoform P21439-2): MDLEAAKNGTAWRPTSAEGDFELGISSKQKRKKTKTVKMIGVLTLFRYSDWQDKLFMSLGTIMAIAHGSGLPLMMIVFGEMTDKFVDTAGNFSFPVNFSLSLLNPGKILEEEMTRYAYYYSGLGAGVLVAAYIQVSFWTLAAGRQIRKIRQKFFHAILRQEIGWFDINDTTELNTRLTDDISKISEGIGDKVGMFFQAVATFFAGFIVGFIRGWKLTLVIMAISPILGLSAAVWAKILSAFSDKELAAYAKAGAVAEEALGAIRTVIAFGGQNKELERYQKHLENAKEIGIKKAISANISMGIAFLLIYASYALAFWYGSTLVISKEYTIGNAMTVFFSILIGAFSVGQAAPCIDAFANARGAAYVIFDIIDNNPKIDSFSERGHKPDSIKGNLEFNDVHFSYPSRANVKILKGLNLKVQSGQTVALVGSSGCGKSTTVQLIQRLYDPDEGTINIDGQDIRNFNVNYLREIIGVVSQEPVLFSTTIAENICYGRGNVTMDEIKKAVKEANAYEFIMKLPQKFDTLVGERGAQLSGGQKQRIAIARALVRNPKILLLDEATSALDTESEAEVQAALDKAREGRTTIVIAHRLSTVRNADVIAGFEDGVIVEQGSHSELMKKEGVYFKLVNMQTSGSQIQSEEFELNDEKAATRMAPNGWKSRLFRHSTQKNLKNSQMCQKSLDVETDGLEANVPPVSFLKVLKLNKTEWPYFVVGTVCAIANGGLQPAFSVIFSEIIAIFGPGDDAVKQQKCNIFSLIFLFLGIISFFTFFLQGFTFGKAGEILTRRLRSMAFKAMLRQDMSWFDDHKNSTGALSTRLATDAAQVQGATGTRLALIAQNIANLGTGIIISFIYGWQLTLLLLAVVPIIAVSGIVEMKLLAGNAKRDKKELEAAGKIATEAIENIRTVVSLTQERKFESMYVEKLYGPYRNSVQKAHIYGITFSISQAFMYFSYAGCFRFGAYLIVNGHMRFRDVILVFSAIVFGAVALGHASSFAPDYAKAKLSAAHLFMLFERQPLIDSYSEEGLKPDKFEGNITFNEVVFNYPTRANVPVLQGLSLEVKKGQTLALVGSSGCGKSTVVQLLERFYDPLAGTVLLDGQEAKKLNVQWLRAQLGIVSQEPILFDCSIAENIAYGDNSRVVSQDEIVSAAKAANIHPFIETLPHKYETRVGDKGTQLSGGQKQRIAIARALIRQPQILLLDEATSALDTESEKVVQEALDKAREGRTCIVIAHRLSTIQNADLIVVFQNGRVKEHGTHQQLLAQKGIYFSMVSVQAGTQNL
Method: (§1) The sodium salts of conjugated and unconjugated bile acids were dissolved in double-distilled water (ddH2O) or 100% DMSO at a concentration of 100 mM. While glyco-/tauro-/cholic acid (G/T/CA), glyco-/tauro-/chenodeoxycholic acid (G/T/CDCA) were dissolved in ddH2O water, glyco-/tauro-/deoxycholic acid (G/T/DCA), glyco/-tauro-/ursodeoxycholic acid (G/T/UDCA) as wells as Nor-UDCA and taurolithocholic acid (TLCA) were dissolved in DMSO. […] Modulation of the ATP hydrolysis by bile acid was determined in a concentration-dependent manner from 0 to 1,000 μM bile acids.
(§2) Analysis of the ATP activity of ABCB4 was performed by determining the amount of released, free inorganic orthophosphate by the malachite green assay ([53], [54], [60]) with minor modifications. The assay was performed in a total volume of 100 μl consisting of reaction buffer (50 mM Tris HCl, pH 7.4 at 37°C, 100 mM NaCl) supplemented with the 2.5 × cmc of FC-16 and 10 mM MgCl2. For determining the effect of DOPC, different bile acids or combinations thereof, 1–5 μL of the corresponding stock solutions (see lipid and bile acid preparation) were added. Five micrograms of ABCB4 or the BODIPY®-labeled sample was used in every reaction sample. Reaction was started by addition of ATP (5 mM f.c.) and performed for 40 min at 37°C. After 0 and 40 min, the reaction was stopped by transferring 25 μl of the reaction mixture into a 96-well plate containing 175 μl of 20 mM ice-cold sulfuric acid. Additionally, a phosphate standard with concentrations raging from 0 to 500 μM was used. Subsequently, inorganic phosphate was stained by adding 50 μl of dye (0.096% (w/v) malachite green, 1.48% (w/v) ammonium molybdate, 0.173% (w/v) Tween-20, and […] sulfuric acid). After incubation for 15 min, the absorption at 595 nm was measured (iMark™ Microplate Reader, BioRad), and the concentrations of phosphate release were calculated based on the slope of the line calculated based on the phosphate standards.
(§3) Basal ATPase activity of ABCB4 was set to 0% and the effect of supplements was calculated as % stimulation or % inhibition of the basal activity, respectively. For determination of kinetic parameters, bile acid concentration was varied and analyzed according to an allosteric sigmoidal fit (Equation 1):(1) v=vmax∗[S]^h/EC50h+[S]^h
Here, v describes the stimulation (%), vmax is the maximal stimulation (%), EC50 represents the half maximal effective concentration, S is the substrate concentration, and h is the Hill coefficient
In case of inhibition, the reduction (%) was plotted against the bile acid concentration and data were analyzed using Equation 2:(2) y=ymin+(ymax−ymin)/1+10^((logIC50−x)∗slope)
Here, ymax is the smallest, and ymin is the highest amount of inhibition, respectively, and x represents the concentration of the inhibitor. The IC50 value is defined as the concentration necessary to obtain 50% inhibition.
In case of both substrate stimulations, followed by substrate inhibition after maximal stimulation was reached, the modulation (%) was plotted against the substrate concertation and data was analyzed using by two fits: First part (stimulation) was as usually fitted using Equation 1. The second part (substrate inhibition) was analyzed by Equation 3 starting at the last point of the plateau:(3) y=ymin+[…]/(1+x/IC50)
Here, ymax is the highest value of the plateau after stimulation is reached, while ymin is the smallest value of y after maximal stimulation was reached.

human ABCB4 [3] = target: T1, human ABCB4; test: ATP hydrolysis (malachite green) of purified ABCB4 in the presence of 300 μM DOPC (with or without cholesterol); assay type: biochemical; settings: for activity at 1000 µM / Relative ATPase activity in the presence of 300 μM DOPC: 1,000 μM bile acid/detergent/BAM + 300 μM DOPC; for activity at 1000 µM: read-out: Relative ATPase activity in the presence of 300 μM DOPC; for Decrease of DOPC-stimulated ATPase activity: 1,000 μM + 300 μM DOPC, relative to DOPC alone
Method: A sample of purified ABCB4 was incubated with 10-fold molar excess of BODIPY® FL maleimide (BODIPY® FL N-(2-aminoethyl)maleimide, Molecular Probes) at 22°C for 20 min. The reaction was quenched after 20 min by addition of a 20-fold molar excess of dithiothreitol (DTT) at 22°C for 10 min. Qualitative labeling efficiency was analyzed by visualizing a sample after SDS-PAGE by UV excitation.
DOPC was dissolved in chloroform, the solvent was evaporated, and the dried lipid sample was redissolved in ATP hydrolysis reaction buffer (50 mM Tris HCl, pH 7.4 at 37°C, 100 mM NaCl) at a concentration of 25.4 mM following the protocol of Geertsma et al. ([59]). Prior to the addition of the DOPC sample to the ATP hydrolysis assay, it was diluted to 5 mM, sonicated until a clear solution was obtained, and subsequently used at a final concentration of 300 μM. Since chloroform is not suitable for the later ATPase assay and cholesterol at higher concentration is insoluble in water and nearly all solvents, a molar mixture of cholesterol and DOPC was used. This mixture was obtained by adding the required molar ratio of cholesterol to always the same amount of dried DOPC. Afterward, the mixture was treated identical to DOPC only as described above resulting in a final concentration (f.c.) of 300 μM DOPC with 0–1,000 μM cholesterol in the ATPase assay.
as §1, §2, §3

[4] = vmax of allosteric sigmoidal fit (Equation 1), read-out: Max. Stimulation (%)
[5] = basal = 0%, negative = inhibition, duplicates
[6] = vmax of allosteric sigmoidal fit (Equation 1)

Row | Critical micelle concentration (cmc) [1] | Emax (human ABCB4 [2]; [4]) [%] | activity at 1000 µM (human ABCB4 [3]; DOPC alone set to 100%) [%] | SMILES | Slope (human ABCB4 [2]) | EC50 (human ABCB4 [2]; read-out: EC50) [µM] | Concentration at which maximal stimulation (plateau) of ATPase activity is reached (human ABCB4 [2]) | other results
1 | 1.5 mM and 1.5 ± 0.1 mM | 137 ± 16.8 | 89.7 ± 1.4 | C[C@H](CCC(=O)O)[C@H]1CC[C@H]2[C@@H]3[C@H](O)C[C@@H]4C[C@H](O)CC[C@]4(C)[C@H]3CC[C@]12C [CDCA, chenodeoxycholic acid] | 1.8 ± 0.4 | 308 ± 56.8 | – | –
2 | – | – | – | C[C@H](CCC(=O)NCCC[N+](C)(C)CCCS(=O)(=O)[O-])[C@H]1CC[C@H]2[C@@H]3[C@H](O)C[C@@H]4C[C@H](O)CC[C@]4(C)[C@H]3C[C@H](O)[C@]12C [CHAPS, 3-[(3-cholamidopropyl)dimethylammonio]-1-propanesulfonate] | 3.7 ± 2.1 | 151 ± 20.8 | 300 µM | Modulation of basal ATPase activity at 10 μM (human ABCB4 [2]; [5]): –7.1 ± 3.6%; Modulation of basal ATPase activity at 50 μM (human ABCB4 [2]; 50 μM, basal = 0%, negative = inhibition, duplicates): –9.9 ± 5.0%; Max. Stimulation (%) (human ABCB4 [2]; [6]): 142.6 ± 11.5%; Decrease of DOPC-stimulated ATPase activity (human ABCB4 [3]): approximately 50%; Relative ATPase activity in the presence of 300 μM DOPC (human ABCB4 [3]; DOPC alone set to 100%): 52.6 ± 6.5%
3 | – | – | – | C[C@H](CCC(=O)NCCC[N+](C)(C)CC(O)CS(=O)(=O)[O-])[C@H]1CC[C@H]2[C@@H]3[C@H](O)C[C@@H]4C[C@H](O)CC[C@]4(C)[C@H]3C[C@H](O)[C@]12C (stereo partly shown) [CHAPSO, 3-[(3-cholamidopropyl)dimethylammonio]-2-hydroxy-1-propanesulfonate] | 4.3 ± 2.5 | 125 ± 23.3 | 300 µM | Modulation of basal ATPase activity at 10 μM (human ABCB4 [2]; [5]): –7.5 ± 8.6%; Max. Stimulation (%) (human ABCB4 [2]; [6]): 145.4 ± 15.3%; Decrease of DOPC-stimulated ATPase activity (human ABCB4 [3]): approximately 50%; Relative ATPase activity in the presence of 300 μM DOPC (human ABCB4 [3]; DOPC alone set to 100%): 48.7 ± 3.0%
4 | – | – | – | CC(C)CCC[C@@H](C)[C@H]1CC[C@H]2[C@@H]3CC=C4C[C@@H](O)CC[C@]4(C)[C@H]3CC[C@]12C [Cholesterol] | – | – | – | ATPase activity at cholesterol:DOPC ratio 1.5:1 (human ABCB4 [3]; 300 μM DOPC, DOPC alone set to 100%): 190.4 ± 9.4%; Emax (human ABCB4 [3]; 300 μM DOPC, DOPC alone set to 100%, cholesterol:DOPC ratios 1-2, read-out: Maximal stimulation of ATPase activity by cholesterol (vmax)): 204 ± 5.9%; ATPase activity at cholesterol:DOPC molar ratio 0.04 (human ABCB4 [3]; 300 μM DOPC, DOPC alone set to 100%, considered no stimulation): 119%; EC50 (human ABCB4 [3]; cholesterol mixed with 300 μM DOPC, molar ratios 0-3.3 (cholesterol to DOPC)): 210 µM; Slope (human ABCB4 [3]; cholesterol mixed with 300 μM DOPC, allosteric sigmoidal fit): 7.8 ± 2.2; Max. Stimulation (%) (human ABCB4 [3]; cholesterol mixed with 300 μM DOPC, stimulation in addition to DOPC stimulation): 103.5 ± 5.9%
5 | 1.4 mM and 1.4 ± 0.1 mM | 214 ± 13.3 | 100 ± 7.5 | C[C@H](CCC(=O)O)[C@H]1CC[C@H]2[C@@H]3CC[C@@H]4C[C@H](O)CC[C@]4(C)[C@H]3C[C@H](O)[C@]12C [DCA, deoxycholic acid] | 2.6 ± 0.6 | 75 ± 7.3 | 300 µM | –
6 | – | – | – | CCCCCCCC/C=C\CCCCCCCC(=O)OC[C@H](COP(=O)([O-])OCC[N+](C)(C)C)OC(=O)CCCCCCC/C=C\CCCCCCCC [DOPC, 1,2-dioleoyl-sn-glycero-3-phosphocholine] | – | – | – | ATPase activity of nonlabeled protein (human ABCB4 [3]; presence of 300 μM DOPC, 5 μg protein): 488.6 ± 44.5 nmol/min/mg; Specific ATPase activity of ABCB4 (Bodipy-labeled activity subtracted) (human ABCB4 [3]; presence of 300 μM DOPC, basal 132.1 ± 13.0): 275.8 ± 24.8 nmol/min/mg; ATPase activity of ABCB4-Bodipy (Bodipy-labeled protein) (human ABCB4 [3]; with 300 μM DOPC, non-ABCB4-mediated background): 212.8 ± 19.7 nmol/min/mg
7 | 4.1 mM and 4.1 ± 0.1 mM | 733 ± 24 | 171 ± 6.9 | C[C@H](CCC(=O)NCC(=O)O)[C@H]1CC[C@H]2[C@@H]3[C@H](O)C[C@@H]4C[C@H](O)CC[C@]4(C)[C@H]3C[C@H](O)[C@]12C [GCA] | 2.9 ± 0.4 | 177 ± 9.9 | approximately 400 μM | –
8 | Precipitate ^a | – | – | C[C@H](CCC(=O)O)[C@H]1CC[C@H]2[C@@H]3CC[C@@H]4C[C@H](O)CC[C@]4(C)[C@H]3CC[C@]12C [LCA, lithocholic acid] | – | – | – | –

Row | SMILES | Critical micelle concentration (cmc) [1] | Emax (human ABCB4 [2]; [4]) [%] | activity at 1000 µM (human ABCB4 [3]; DOPC alone set to 100%) [%] | Slope (human ABCB4 [2]) | EC50 (human ABCB4 [2]; read-out: EC50) [µM] | Concentration at which maximal stimulation (plateau) of ATPase activity is reached (human ABCB4 [2]) | other results
9 | C[C@H](CCC(=O)O)[C@H]1CC[C@H]2[C@@H]3[C@H](O)C[C@@H]4C[C@H](O)CC[C@]4(C)[C@H]3C[C@H](O)[C@]12C [CA, cholic acid] | 2.3 mM and 2.3 ± 0.2 mM | 310 ± 16.4 | 117 ± 8.9 | 2.8 ± 0.3 | 390 ± 22.7 | – | –
10 | C[C@H](CCC(=O)NCC(=O)O)[C@H]1CC[C@H]2[C@@H]3[C@H](O)C[C@@H]4C[C@H](O)CC[C@]4(C)[C@H]3CC[C@]12C [GCDCA] | 2.6 mM and 2.6 ± 0.1 mM | 223 ± 10 | 127 ± 2.8 | 3.9 ± 1.5 | 77.8 ± 7.5 | approximately 150 μM | –
11 | C[C@H](CCC(=O)NCCS(=O)(=O)O)[C@H]1CC[C@H]2[C@@H]3[C@H](O)C[C@@H]4C[C@H](O)CC[C@]4(C)[C@H]3C[C@H](O)[C@]12C [TCA, taurocholic acid] | 3.5 mM and 3.5 ± 0.1 mM | – | – | 2.6 ± 0.5 | – | approximately 400 μM | EC50 (human ABCB4 [2]; EC50 (μM)): 114 µM; Emax (human ABCB4 [2]; read-out: Max. Stimulation (%), vmax of allosteric sigmoidal fit (Equation 1)): 539 ± 24%
